In ChEMBL document CHEMBL1134903, “Synthesis and SAR of azalide 3,6-ketal aromatic derivatives as potent Gram-positive and Gram-negative antibacterial agents” (Bioorg Med Chem Lett, 2002):
In brackets after ≈: the same amount, converted by molar mass.

What was measured:
Type in all cases: functional
Escherichia coli = assay: Minimum inhibitory concentration against Escherichia coli
Pasteurella multocida = assay: Minimum inhibitory concentration against Pasteurella multocida
Staphylococcus aureus [1] = assay: Minimum inhibitory concentration against Staphylococcus aureus
Staphylococcus aureus [2] = assay: Effective dose required to inhibit Staphylococcus aureus intraperitoneal (IP) infection model
Staphylococcus aureus [3] = assay: Colony forming units of Staphylococcus aureus intramammary infection (IMI) model was determined at a dose of 15 mg/kg

Row | Structure (SMILES) | MIC (Escherichia coli) [µg/mL] | MIC (Pasteurella multocida) [µg/mL] | MIC (Staphylococcus aureus [1]) [µg/mL] | ED50 (Staphylococcus aureus [2]) [mg/kg] | Log CFU (Staphylococcus aureus [3])
1 | CC[C@H]1OC(=O)[C@H](C)[C@H]2OC3(CCN(C(=O)c4ccccc4)CC3)O[C@](C)(C[C@@H](C)CN[C@H](C)[C@@H](O)[C@]1(C)O)[C@H](O[C@@H]1O[C@H](C)C[C@H](N(C)C)[C@H]1O)[C@H]2C | 1.56 (≈ 2.05 µM) | 0.1 (≈ 0.131 µM) | 0.78 (≈ 1.02 µM) | 20 | 2.9
2 | CC[C@H]1OC(=O)[C@H](C)[C@H]2OC3(CCN(Cc4cccnc4)CC3)O[C@](C)(C[C@@H](C)CN[C@H](C)[C@@H](O)[C@]1(C)O)[C@H](O[C@@H]1O[C@H](C)C[C@H](N(C)C)[C@H]1O)[C@H]2C | 0.78 (≈ 1.04 µM) | 0.03 (≈ 0.0401 µM) | 0.39 (≈ 0.521 µM) | < 5 | 1.3
3 | CC[C@H]1OC(=O)[C@H](C)[C@H]2OC3(CCN(C(=O)c4ccnc5ccccc45)CC3)O[C@](C)(C[C@@H](C)CN[C@H](C)[C@@H](O)[C@]1(C)O)[C@H](O[C@@H]1O[C@H](C)C[C@H](N(C)C)[C@H]1O)[C@H]2C | 6.25 (≈ 7.69 µM) | 0.1 (≈ 0.123 µM) | 0.39 (≈ 0.48 µM) | 7.6 | 1.9
4 | CC[C@H]1OC(=O)[C@H](C)[C@H]2OC3(CCN(C(=O)c4cnccn4)CC3)O[C@](C)(C[C@@H](C)CN[C@H](C)[C@@H](O)[C@]1(C)O)[C@H](O[C@@H]1O[C@H](C)C[C@H](N(C)C)[C@H]1O)[C@H]2C | 1.56 (≈ 2.04 µM) | 0.1 (≈ 0.131 µM) | 1.56 (≈ 2.04 µM) | 6.1 | 1.3
5 | CC[C@H]1OC(=O)[C@H](C)[C@H]2OC3(CCN(C(=O)c4cccn4C)CC3)O[C@](C)(C[C@@H](C)CN[C@H](C)[C@@H](O)[C@]1(C)O)[C@H](O[C@@H]1O[C@H](C)C[C@H](N(C)C)[C@H]1O)[C@H]2C | 1.56 (≈ 2.04 µM) | 0.1 (≈ 0.131 µM) | 0.78 (≈ 1.02 µM) | 19 | 2.4
